Measured values reported in patent publication US20080200372A1, “Glycosaminoglycan Peptides Derived From Connective Tissues And Use Thereof In The Prevention Of Arthritis And Other Degenerative Medical Conditions” (Institute of Nutraceutical Research Pty Ltd., priority 2004, published 2008).
Entries after “also recorded” stand apart in the source; their conditions may differ.

What was measured:
[1] = test system: rat collagen induced arthritis (CIA) model; assay: Rat type II collagen induced arthritis (CIA) model, toleragenic protocol (7 days oral pre-administration); format: in vivo; details: for activity as toleragens in the rat CIA model: comparative study with CaP, FIG. 8
Method: In another example of the present invention, the tolerogenic protocol of evaluation of the pharmaceutical of the invention comprises administering the pharmaceutical composition to the animals prior to inducing arthritis by injection of the arthritogen. The pharmaceutical composition is administered for a period of time suitable to tolerize the animal. In one example the pharmaceutical composition is administered for 1 to 21 days prior to administration of the arthritogen. In one preferred example the pharmaceutical composition is administered for 1, 7, 10, 15 or 20 days prior to administration of the arthritogen. According to the toleragenic protocol for studying the activity of the pharmaceutical of the present invention, it is preferred that administration of the pharmaceutical composition ceases at the time that the arthritogen is administered.
Female Wistar rats (160-180 gm) were inoculated with 250 μg of the arthritogen, bovine tracheal collagen type-II dissolved in dilute acetic acid (0.01M) and applied as 6 divided injections into their tail base on day 0. The body weight of animals, together with their tail and paw swelling, were determined every 48 h, the latter parameters being determined using callipers and results expressed in millimetres (mm). Arthritis development was also assessed from day 11 onwards using a macroscopic scoring scale whereby rear paw, fore paw, and tail swelling were scored on a scale 0-4+. An overall arthritis score (0-4+) was also determined on the basis of overall inflammation and other signs of disease activity, e.g. piloerection, diminished mobility, poor grooming etc as described previously [Creamer M. et al. Collagen-induced arthritis in rats. J Immunology, 149:1045-1053, 1992]. […]

[2] = test system: rat collagen induced arthritis (CIA) model; assay: Rat type II collagen induced arthritis (CIA) model, prophylactic protocol (15 days oral administration); format: in vivo; details: 200 mg/kg oral, 15 days administration, measured on day 15 (FIG. 8, FIG. 14)
Method: According to the prophylactic protocol of evaluation, the pharmaceutical composition of the present invention is administered to the animals from the time the animals are injected with arthritogen and for a number of days thereafter. In one example the pharmaceutical composition is administered to the animal for between 1 and 15 days after administration of the arthritogen. In alternate examples of the invention the pharmaceutical composition is administered for example for 7, 10, 15 or 20 days after administration of the arthritogen. The scope of the present invention extends to the administration of the pharmaceutical composition for an appropriate period of time after administration of the arthritogen that is suitable to effect prophylaxis to prevent the onset of symptoms of a harmful immune response to the arthritogen. […] The body weight of animals, together with their tail and paw swelling, were determined every 48 h, the latter parameters being determined using callipers and results expressed in millimetres (mm). Arthritis development was also assessed from day 11 onwards using a macroscopic scoring scale whereby rear paw, fore paw, and tail swelling were scored on a scale 0-4+. […]

[3] = test system: haemorrhagic stomach lesions produced by ibuprofen in rats with CIA; assay: Gastroprotective activity in the rat CIA model against haemorrhagic stomach lesions produced by ibuprofen; format: in vivo
Method: FIG. 18 provides a table (Table 1) of the results for testing gastroprotective activity of Calcium Peptacan in the Rat CIA Arthritis Model against haemorrhagic stomach lesions produced by oral administration of the non-steroidal anti-inflammatory drug, Ibufrofen (50 mg/kg) on day 20.
As discussed earlier the chronic use of NSAIDs by OA and RA patients is frequently associated with serious side effects in the gastrointestinal tract particularly with respect the induction of gastric bleeding. This effect was confirmed in an animal model by administering 50 mg/kg of the NSAID, ibuprofen, to rats in which CIA had been ongoing for 20 days [see FIG. 18—Table 1].

[4] = test system: citrated human plasma; assay: In vitro anticoagulant activity, activated partial thromboplastin time (aPTT); format: biochemical
Method: Pharmaceutical quality chondroitin sulfate were obtained from Bioiberica, Barcelona, Spain (ChS#1) and Sigma Chemical Co St Louis, Mo., USA (ChS#2). Calcium peptacan (CaP), and GAG-peptide (GAG-P), prepared as described herein, were evaluated for their anticoagulant activities using a commercial aPTT reagent (Actin FSL activated PTT reagent, Dade-Behring Margurg GmbH, Marburg, Germany) and a standard human plasma: (Ci-Trol Coagulation Control level 2, Dade-Behring Margurg GmbH, Marburg, Germany) according to the protocol supplied by the manufacturer. Stock solutions of the test preparations were dissolved in 0.025M calcium chloride and serially diluted in this buffer to correspond to the concentrations of 0-1.25 mg/mL. The aPTT times were determined by the addition of these solutions to a mixture of the Actin FSL reagent and control plasma held at 37° C. in cuvettes of a fibrin-timer (Dade-Behring Margurg GmbH, Marburg, Germany). This instrument quantitated the time in seconds for clot formation. All samples were assayed in duplicate and the mean values plotted against concentration using a semi-log scale.

[5] = test system: type II collagen (CII) arthritis (CIA) in mice; details: cited from earlier work

## Cl.N[C@H]1C(O)O[C@H](CO)[C@@H](O)[C@@H]1O (stereo partly drawn) [GmHCl, Glucosamine Hydrochloride]
[1]
  activity as toleragens in the rat CIA model: inactive as toleragens
[2]
  prophylactic effects on arthritis development (rear paw swelling, front paw inflammation, arthritis scores): CaP was the only preparation that demonstrated anti-arthritic activity

## N[C@H]1C(O)O[C@H](CO)[C@@H](O)[C@@H]1O.O=S(=O)(O)O (stereo partly drawn) [GmSO4, Glucosamine Sulfate]
[1]
  activity as toleragens in the rat CIA model: inactive as toleragens
[2]
  prophylactic effects on arthritis development (rear paw swelling, front paw inflammation, arthritis scores): CaP was the only preparation that demonstrated anti-arthritic activity

## O=C(O)CC([S-])C(=O)O.[Au+] (stereo not drawn) [aurothiomalate]
[3]; ibuprofen 50 mg/kg on day 20 of CIA, dose of test substance not given
  gastro protective effectiveness: only marginally effective

## CC(C)Cc1ccc(C(C)C(=O)O)cc1 (stereo not drawn) [ibuprofen]
[3]; 50 mg/kg to rats in which CIA had been ongoing for 20 days
  induction of gastric bleeding: confirmed

## chondroitin sulfate [ChS #1]
[4]; citrated human plasma, 0-1.25 mg/mL (FIG. 17)
  anticoagulant effect (aPTT): strongest anticoagulant effect

## chondroitin sulfate [ChS]
[5]; at any dose (100, 300, 1000 mg/kg), mice
  delayed-type hypersensitivity (DTH) reaction: no effect
[5]; only at the highest dose, 1000 mg/kg oral, mice
  severity of the disease (hind paw oedema, synovitis, destruction of the articular cartilage): significantly reduced
[5]; oral doses of 100, 300 and 1000 mg/kg for 14 days prior to inducing CIA in mice
  incidence of arthritis: failed to prevent the incidence of arthritis
[1]; 20 mg/kg oral, 7 days pre-administration, measured on day 15 (FIG. 7, FIG. 9)
  toleragenic effects on arthritis development (rear paw swelling, front paw inflammation, arthritis scores): inactive as a toleragen; also recorded: no activity
[4]; aPTT (FIG. 17)
  concentration range over which anti-coagulant activity was exhibited: 0.4 to 1.2 mg/mL
